The source made the active and inactive calls. No cut-off for these calls is given here.
What was measured:
[1] = target: T1, Eukaryotic elongation factor 2 kinase (Homo sapiens) (UniProt O00418); assay: Inhibition of GST-tagged EEF2K (unknown origin) at 20 uM using biotinylated EEF2 peptide substrate by HTRF assay relative to control
T1 sequence (whole entry): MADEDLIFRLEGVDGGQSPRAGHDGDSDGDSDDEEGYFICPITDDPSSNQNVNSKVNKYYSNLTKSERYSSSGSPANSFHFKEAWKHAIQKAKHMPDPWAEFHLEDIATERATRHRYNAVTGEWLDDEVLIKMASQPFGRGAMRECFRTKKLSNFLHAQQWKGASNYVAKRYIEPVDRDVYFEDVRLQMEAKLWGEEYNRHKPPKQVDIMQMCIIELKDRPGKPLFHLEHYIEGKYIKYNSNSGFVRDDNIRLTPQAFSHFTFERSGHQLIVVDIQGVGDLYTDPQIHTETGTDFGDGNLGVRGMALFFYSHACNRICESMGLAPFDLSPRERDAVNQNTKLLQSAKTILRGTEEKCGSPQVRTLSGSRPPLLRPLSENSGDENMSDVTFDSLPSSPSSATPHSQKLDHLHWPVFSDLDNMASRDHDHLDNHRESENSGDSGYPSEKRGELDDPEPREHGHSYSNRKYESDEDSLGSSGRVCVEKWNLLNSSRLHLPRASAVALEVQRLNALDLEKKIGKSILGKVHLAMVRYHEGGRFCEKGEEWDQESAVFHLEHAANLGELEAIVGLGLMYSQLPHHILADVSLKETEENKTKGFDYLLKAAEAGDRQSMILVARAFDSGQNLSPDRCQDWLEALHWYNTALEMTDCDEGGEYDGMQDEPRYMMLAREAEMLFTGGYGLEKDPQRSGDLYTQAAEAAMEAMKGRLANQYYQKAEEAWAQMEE

[2] = target: T2, Serine/threonine-protein kinase PLK1 (Homo sapiens, UniProt P53350); assay: Inhibition of full length human PLK1 using casein as substrate after 40 mins in presence of [gamma-33P]-ATP by radiometric assay
[3] = target: Eukaryotic elongation factor 2 kinase (Homo sapiens, UniProt O00418); assay: Inhibition of GST-tagged EEF2K (unknown origin) using biotinylated EEF2 peptide substrate by HTRF assay
BT-483 [4] = assay: Cytotoxicity against human BT-483 cells after 24 hrs by MTT assay; assay type: functional, cell-based; conditions: BT-483, 24 h
BT-483 [5] = assay: Induction of apoptosis in human BT-483 cells assessed as early apoptotic cells at 5 uM by Annexin V-FITC/propidium iodide staining based flow cytometry (reference value: 2.01%); assay type: functional
BT-483 [6] = assay: Induction of autophagy in human BT-483 cells transfected with GFP-fused LC3 assessed as aggregation of GFP-LC3 punctures after 6 hrs by DAPI staining based assay; assay type: functional, cell-based
BT-483 [7] = assay: Cell cycle arrest in human BT-483 cells assessed as accumulation at G2/M phase at 5 to 10 uM after 24 to 72 hrs; assay type: functional, cell-based
[8] = target: T2, Serine/threonine-protein kinase PLK1; assay: Inhibition of PLK1 autophosphorylation in human BT-483 cells at 5 to 10 uM by Western blot analysis; assay type: cell-based
[9] = target: T1, Eukaryotic elongation factor 2 kinase (Homo sapiens); assay: Inhibition of EEF2K-meidated EEF2 phosphorylation in human BT-483 cells at 5 to 10 uM by Western blot analysis; assay type: cell-based
BT-483 [10] = assay: Effect on total EEF2K protein expression in human BT-483 cells at 5 to 10 uM by Western blot analysis; assay type: ADME, cell-based; conditions: bt-483, 10 µM
BT-483 [11] = assay: Upregulation of Bax protein expression in human BT-483 cells at 5 to 10 uM by Western blot analysis; assay type: functional, cell-based
BT-483 [12] = assay: Upregulation of cleaved caspase-3 protein expression in human BT-483 cells at 5 to 10 uM by Western blot analysis; assay type: functional, cell-based
BT-483 [13] = assay: Effect on caspase-8 protein expression in human BT-483 cells at 5 to 10 uM by Western blot analysis; assay type: functional, cell-based
[14] = target: Casein kinase I isoform gamma-2 (Homo sapiens) (UniProt P78368); assay: Inhibition of wild-type human full length CSNK1G2 (M1 to K415 residues) expressed in bacterial expression system assessed as residual activity at 1 uM by Kinomescan method relative to control
[15] = target: Dual specificity tyrosine-phosphorylation-regulated kinase 1B (Homo sapiens) (UniProt Q9Y463); assay: Inhibition of wild-type human full length DYRK1B (M1 to S629 residues) expressed in bacterial expression system assessed as residual activity at 1 uM by Kinomescan method relative to control
[16] = target: T1, Eukaryotic elongation factor 2 kinase (Homo sapiens); assay: Inhibition of EEF2K (unknown origin) assessed as residual activity at 1 uM by Kinomescan assay relative to control
[17] = target: Mitogen-activated protein kinase 6 (Homo sapiens) (UniProt Q16659); assay: Inhibition of wild-type human partial length ERK3 (M1 to P413 residues) expressed in bacterial expression system assessed as residual activity at 1 uM by Kinomescan method relative to control
[18] = target: Receptor-type tyrosine-protein kinase FLT3 (Homo sapiens) (UniProt P36888); assay: Inhibition of wild-type human partial length FLT3 (V592 to Y969 residues) expressed in bacterial expression system assessed as residual activity at 1 uM by Kinomescan method relative to control
[19] = target: Insulin receptor (Homo sapiens) (UniProt P06213); assay: Inhibition of wild-type human partial length INSR (P997 to E1318 residues) expressed in mammalian expression system assessed as residual activity at 1 uM by Kinomescan method relative to control
[20] = target: Tyrosine-protein kinase JAK2 (Homo sapiens) (UniProt O60674); assay: Inhibition of wild-type human partial length JAK2 JH1 catalytic domain (A829 to G1132 residues) expressed in mammalian expression system assessed as residual activity at 1 uM by Kinomescan method relative to control
[21] = target: Mitogen-activated protein kinase 8 (Homo sapiens) (UniProt P45983); assay: Inhibition of wild-type human full length JNK1 (M1 to Q384 residues) expressed in mammalian expression system assessed as residual activity at 1 uM by Kinomescan method relative to control
[22] = target: Phosphatidylinositol 4,5-bisphosphate 3-kinase catalytic subunit gamma isoform (Homo sapiens) (UniProt P48736); assay: Inhibition of wild-type human partial length PIK3CG (S144 to A1102 residues) expressed in mammalian expression system assessed as residual activity at 1 uM by Kinomescan method relative to control
[23] = target: cAMP-dependent protein kinase catalytic subunit alpha (Homo sapiens) (UniProt P17612); assay: Inhibition of wild-type human partial length PKAC-alpha (G10 to F351 residues) expressed in bacterial expression system assessed as residual activity at 1 uM by Kinomescan method relative to control
[24] = target: Rho-associated protein kinase 1 (Homo sapiens) (UniProt Q13464); assay: Inhibition of wild-type human partial length ROCK1 (M1 to R415 residues) expressed in mammalian expression system assessed as residual activity at 1 uM by Kinomescan method relative to control
[25] = target: Angiopoietin-1 receptor (Homo sapiens) (UniProt Q02763); assay: Inhibition of wild-type human partial length TIE2 (N804 to T1112 residues) expressed in bacterial expression system assessed as residual activity at 1 uM by Kinomescan method relative to control

T2 sequence (P53350 whole entry): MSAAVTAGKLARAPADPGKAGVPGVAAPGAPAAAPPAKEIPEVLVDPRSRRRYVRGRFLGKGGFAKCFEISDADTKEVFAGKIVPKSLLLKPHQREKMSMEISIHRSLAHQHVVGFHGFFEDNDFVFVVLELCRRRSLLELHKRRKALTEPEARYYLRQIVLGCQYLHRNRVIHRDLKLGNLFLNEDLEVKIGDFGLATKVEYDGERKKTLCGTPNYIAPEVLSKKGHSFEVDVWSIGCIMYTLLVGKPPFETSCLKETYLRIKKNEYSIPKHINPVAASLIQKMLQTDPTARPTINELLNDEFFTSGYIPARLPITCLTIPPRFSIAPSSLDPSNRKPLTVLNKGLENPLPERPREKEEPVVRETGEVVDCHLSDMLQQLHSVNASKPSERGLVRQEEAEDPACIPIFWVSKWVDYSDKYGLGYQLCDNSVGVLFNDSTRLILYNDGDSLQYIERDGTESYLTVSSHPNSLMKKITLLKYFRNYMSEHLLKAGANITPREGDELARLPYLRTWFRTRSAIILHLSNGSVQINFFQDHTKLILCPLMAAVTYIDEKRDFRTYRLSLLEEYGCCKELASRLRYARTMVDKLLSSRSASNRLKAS
Sequence of Phosphatidylinositol 4,5-bisphosphate 3-kinase catalytic subunit gamma isoform (Homo sapiens) (P48736 whole entry, looked up, the tested form may be a part, canonical isoform): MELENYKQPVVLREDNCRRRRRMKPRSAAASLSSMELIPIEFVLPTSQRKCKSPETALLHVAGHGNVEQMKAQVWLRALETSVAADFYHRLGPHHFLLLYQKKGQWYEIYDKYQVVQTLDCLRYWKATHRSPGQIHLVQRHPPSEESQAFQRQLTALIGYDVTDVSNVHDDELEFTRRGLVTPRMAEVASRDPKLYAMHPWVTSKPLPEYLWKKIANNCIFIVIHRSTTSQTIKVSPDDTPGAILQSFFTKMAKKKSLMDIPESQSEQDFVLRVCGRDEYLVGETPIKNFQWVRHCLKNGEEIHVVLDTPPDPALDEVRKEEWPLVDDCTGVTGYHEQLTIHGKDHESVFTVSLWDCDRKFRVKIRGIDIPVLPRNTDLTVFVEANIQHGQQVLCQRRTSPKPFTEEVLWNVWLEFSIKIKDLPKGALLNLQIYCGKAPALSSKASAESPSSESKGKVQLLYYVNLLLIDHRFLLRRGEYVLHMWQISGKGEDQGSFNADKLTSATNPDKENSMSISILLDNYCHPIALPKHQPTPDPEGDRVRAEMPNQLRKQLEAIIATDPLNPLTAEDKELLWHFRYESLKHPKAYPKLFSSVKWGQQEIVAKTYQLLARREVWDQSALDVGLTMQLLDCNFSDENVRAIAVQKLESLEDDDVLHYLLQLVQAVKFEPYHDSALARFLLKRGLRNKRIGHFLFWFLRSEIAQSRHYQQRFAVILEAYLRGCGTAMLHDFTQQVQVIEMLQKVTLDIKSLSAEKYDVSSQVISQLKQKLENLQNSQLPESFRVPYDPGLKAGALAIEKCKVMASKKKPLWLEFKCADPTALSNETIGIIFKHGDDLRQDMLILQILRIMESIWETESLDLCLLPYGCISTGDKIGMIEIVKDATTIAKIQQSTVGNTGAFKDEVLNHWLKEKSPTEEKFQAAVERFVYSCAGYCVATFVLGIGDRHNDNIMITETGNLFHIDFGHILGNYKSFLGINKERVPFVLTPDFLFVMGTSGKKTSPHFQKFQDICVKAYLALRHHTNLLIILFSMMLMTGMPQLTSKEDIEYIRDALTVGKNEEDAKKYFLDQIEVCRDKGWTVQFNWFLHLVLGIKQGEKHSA
Sequence of Mitogen-activated protein kinase 8 (Homo sapiens) (P45983 whole entry, the tested form may be a part, canonical isoform): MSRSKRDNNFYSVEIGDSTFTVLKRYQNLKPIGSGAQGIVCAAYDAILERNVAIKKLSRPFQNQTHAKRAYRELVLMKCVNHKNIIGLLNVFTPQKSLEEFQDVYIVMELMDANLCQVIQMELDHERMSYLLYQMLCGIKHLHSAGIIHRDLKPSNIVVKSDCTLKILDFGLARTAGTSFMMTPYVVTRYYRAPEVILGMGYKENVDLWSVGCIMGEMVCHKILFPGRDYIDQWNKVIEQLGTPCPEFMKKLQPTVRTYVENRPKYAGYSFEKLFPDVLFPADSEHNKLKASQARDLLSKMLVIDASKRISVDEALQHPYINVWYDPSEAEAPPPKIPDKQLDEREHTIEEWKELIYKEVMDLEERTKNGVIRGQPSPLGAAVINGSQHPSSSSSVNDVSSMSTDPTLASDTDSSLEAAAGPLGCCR
Sequence of Insulin receptor (Homo sapiens) (P06213 28-758 limits assumed): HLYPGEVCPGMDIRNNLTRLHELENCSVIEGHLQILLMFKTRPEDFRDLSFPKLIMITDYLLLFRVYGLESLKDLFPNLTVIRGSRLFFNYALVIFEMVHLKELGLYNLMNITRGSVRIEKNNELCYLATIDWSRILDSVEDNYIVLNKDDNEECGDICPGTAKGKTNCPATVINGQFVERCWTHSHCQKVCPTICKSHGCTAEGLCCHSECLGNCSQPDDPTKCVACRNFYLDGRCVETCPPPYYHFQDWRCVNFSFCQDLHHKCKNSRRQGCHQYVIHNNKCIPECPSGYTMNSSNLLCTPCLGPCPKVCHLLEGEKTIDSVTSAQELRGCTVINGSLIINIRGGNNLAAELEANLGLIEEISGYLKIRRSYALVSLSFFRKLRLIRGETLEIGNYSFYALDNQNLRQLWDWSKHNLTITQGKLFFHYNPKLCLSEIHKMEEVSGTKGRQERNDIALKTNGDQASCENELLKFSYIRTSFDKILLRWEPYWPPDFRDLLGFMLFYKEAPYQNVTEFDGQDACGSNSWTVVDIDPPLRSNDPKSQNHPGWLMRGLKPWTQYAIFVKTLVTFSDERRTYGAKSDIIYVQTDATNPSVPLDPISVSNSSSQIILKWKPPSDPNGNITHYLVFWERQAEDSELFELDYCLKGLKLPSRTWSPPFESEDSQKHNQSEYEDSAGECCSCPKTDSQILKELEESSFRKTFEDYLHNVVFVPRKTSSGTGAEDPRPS
Sequence of Insulin receptor (Homo sapiens) (P06213 763-1382 limits assumed): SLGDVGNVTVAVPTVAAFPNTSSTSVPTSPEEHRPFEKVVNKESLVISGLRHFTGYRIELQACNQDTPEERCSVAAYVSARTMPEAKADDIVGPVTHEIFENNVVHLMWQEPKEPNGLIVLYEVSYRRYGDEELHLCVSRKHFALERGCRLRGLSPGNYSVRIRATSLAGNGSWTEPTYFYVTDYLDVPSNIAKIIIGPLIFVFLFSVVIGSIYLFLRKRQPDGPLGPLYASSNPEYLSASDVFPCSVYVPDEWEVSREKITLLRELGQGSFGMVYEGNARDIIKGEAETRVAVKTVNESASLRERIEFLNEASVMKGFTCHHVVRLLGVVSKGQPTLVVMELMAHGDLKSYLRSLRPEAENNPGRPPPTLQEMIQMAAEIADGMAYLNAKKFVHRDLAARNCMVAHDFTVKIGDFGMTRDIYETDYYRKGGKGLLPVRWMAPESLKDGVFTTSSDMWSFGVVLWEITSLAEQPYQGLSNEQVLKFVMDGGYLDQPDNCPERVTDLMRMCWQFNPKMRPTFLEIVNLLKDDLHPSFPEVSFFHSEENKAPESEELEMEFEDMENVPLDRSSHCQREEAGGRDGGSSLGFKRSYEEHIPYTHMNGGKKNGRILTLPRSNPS
Sequence of Mitogen-activated protein kinase 6 (Homo sapiens) (Q16659 whole entry, the tested form may be a part): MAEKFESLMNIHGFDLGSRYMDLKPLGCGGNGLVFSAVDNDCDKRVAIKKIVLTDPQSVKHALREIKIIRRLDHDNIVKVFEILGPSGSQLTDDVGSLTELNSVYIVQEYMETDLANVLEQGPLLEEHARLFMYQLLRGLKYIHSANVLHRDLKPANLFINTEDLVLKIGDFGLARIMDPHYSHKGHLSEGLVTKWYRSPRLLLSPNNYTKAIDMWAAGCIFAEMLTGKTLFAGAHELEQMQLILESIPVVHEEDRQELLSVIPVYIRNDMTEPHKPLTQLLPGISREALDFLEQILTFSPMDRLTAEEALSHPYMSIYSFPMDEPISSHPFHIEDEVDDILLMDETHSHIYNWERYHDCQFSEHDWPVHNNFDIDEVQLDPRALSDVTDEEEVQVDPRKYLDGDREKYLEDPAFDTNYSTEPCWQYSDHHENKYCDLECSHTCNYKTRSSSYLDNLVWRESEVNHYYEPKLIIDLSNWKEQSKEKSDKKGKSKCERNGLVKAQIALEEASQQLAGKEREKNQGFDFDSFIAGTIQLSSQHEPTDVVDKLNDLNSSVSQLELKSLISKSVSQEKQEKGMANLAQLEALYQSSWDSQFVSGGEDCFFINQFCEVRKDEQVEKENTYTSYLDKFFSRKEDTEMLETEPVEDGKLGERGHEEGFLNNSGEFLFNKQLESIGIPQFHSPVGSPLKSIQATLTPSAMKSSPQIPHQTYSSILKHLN
Sequence of Dual specificity tyrosine-phosphorylation-regulated kinase 1B (Homo sapiens) (Q9Y463 whole entry, looked up, the tested form may be a part): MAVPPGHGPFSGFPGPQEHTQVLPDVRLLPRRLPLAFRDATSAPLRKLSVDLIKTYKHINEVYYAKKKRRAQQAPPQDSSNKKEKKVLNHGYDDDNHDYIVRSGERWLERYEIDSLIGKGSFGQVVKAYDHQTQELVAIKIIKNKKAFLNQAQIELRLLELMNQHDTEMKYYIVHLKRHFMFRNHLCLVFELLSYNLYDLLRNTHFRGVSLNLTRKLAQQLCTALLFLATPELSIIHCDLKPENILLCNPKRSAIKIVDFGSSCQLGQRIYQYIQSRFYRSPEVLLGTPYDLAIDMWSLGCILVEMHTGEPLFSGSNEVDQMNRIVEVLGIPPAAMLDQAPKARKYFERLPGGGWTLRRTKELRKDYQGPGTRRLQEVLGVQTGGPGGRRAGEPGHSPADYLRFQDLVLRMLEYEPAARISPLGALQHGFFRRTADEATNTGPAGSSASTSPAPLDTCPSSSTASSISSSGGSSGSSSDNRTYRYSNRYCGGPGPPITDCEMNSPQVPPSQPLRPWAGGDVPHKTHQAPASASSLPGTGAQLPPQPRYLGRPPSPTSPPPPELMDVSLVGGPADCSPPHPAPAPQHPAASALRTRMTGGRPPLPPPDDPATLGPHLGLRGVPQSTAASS

In the case of `CCNc1cc(-c2ccc(NC(=O)Nc3cccc(Cl)c3)cc2C(F)(F)F)ccn1`, the inhibition [1] is reported as 82.7%, the IC50 [2] is reported as 85 nM and the IC50 [3] is reported as 762 nM. The IC50 (BT-483 [4]) was 13300 nM, the Activity (BT-483 [5]) was 8.64% and the Activity (BT-483 [6]) was “Active”. The Activity (BT-483 [7]) was “Active”, the inhibition [8] was “Active” and the inhibition [9] was “Active”. For the same molecule, the Activity (BT-483 [10]) was “Non-Toxic”, the Activity (BT-483 [11]) was “Active” and the Activity (BT-483 [12]) was “Active”. For the same molecule, the Activity (BT-483 [13]) was “inactive”, the Activity [14] was 90% and the Activity [15] was 93%. The Activity [16] was 11%, the Activity [17] was 73% and the Activity [18] was 100%. For the same molecule, the Activity [19] was 87%, the Activity [20] was 86% and the Activity [21] was 75%. It also gave an Activity [22] of 74%, an Activity [23] of 79% and an Activity [24] of 70%. It also gave an Activity [25] of 94%.

— ChEMBL document CHEMBL4251622, “Design, synthesis, and biological evaluation of polo-like kinase 1/eukaryotic elongation factor 2 kinase (PLK1/EEF2K) dual inhibitors for regulating breast cancer cells apoptosis and autophagy” (Eur J Med Chem, 2018)
